Test results published in BindingDB's records for doi:10.1016/j.bmcl.2013.05.024 (Janssen Research and Development, 2014).

Experiment: Antagonist activity at CCR2 receptor in human THP1 cells assessed as inhibition of MCP-1 induced chemotaxis after 3 hrs

SMILES	IC50 [nM]
COC1COCCC1N[C@@H]1C[C@H]2CN(c3ccccc3)C[C@@]2(C(=O)N2CCc3ncc(C(F)(F)F)cc3C2)C1 (some centres undefined)	90
COC1COCCC1N[C@@H]1C[C@H]2CN(C(=O)NCc3ccccc3)C[C@@]2(C(=O)N2CCc3ncc(C(F)(F)F)cc3C2)C1 (some centres undefined)	220
COC1COCCC1N[C@@H]1C[C@H]2CN(C(=O)OCCN3CCCC3)C[C@@]2(C(=O)N2CCc3ncc(C(F)(F)F)cc3C2)C1 (some centres undefined)	28
CNC(=O)N1C[C@@H]2C[C@@H](NC3CCOCC3OC)C[C@]2(C(=O)N2CCc3ncc(C(F)(F)F)cc3C2)C1 (some centres undefined)	71
COC1COCCC1N[C@@H]1C[C@H]2CN(C(=O)OCC3CCOCC3)C[C@@]2(C(=O)N2CCc3ncc(C(F)(F)F)cc3C2)C1 (some centres undefined)	65
COC1COCCC1N[C@@H]1C[C@H]2CN(C(=O)OCCN3CCOCC3)C[C@@]2(C(=O)N2CCc3ncc(C(F)(F)F)cc3C2)C1 (some centres undefined)	97
COC1COCCC1N[C@@H]1C[C@H]2CN(C(=O)C#CC3CC3)C[C@@]2(C(=O)N2CCc3ncc(C(F)(F)F)cc3C2)C1 (some centres undefined)	39
COC1COCCC1N[C@@H]1C[C@H]2CN(C(=O)/C=C/C(C)(C)C)C[C@@]2(C(=O)N2CCc3ncc(C(F)(F)F)cc3C2)C1 (some centres undefined)	88
COC1COCCC1N[C@@H]1C[C@H]2CN(C(=O)Oc3ccccc3)C[C@@]2(C(=O)N2CCc3ncc(C(F)(F)F)cc3C2)C1 (some centres undefined)	950
COCCOC(=O)N1C[C@@H]2C[C@@H](NC3CCOCC3OC)C[C@]2(C(=O)N2CCc3ncc(C(F)(F)F)cc3C2)C1 (some centres undefined)	41
COC(=O)N1C[C@@H]2C[C@@H](NC3CCOCC3OC)C[C@]2(C(=O)N2CCc3ncc(C(F)(F)F)cc3C2)C1 (some centres undefined)	69
COC1COCCC1N[C@@H]1C[C@H]2CN(C(N)=O)C[C@@]2(C(=O)N2CCc3ncc(C(F)(F)F)cc3C2)C1 (some centres undefined)	27
COC1COCCC1N[C@@H]1C[C@H]2CN(C(C)=O)C[C@@]2(C(=O)N2CCc3ncc(C(F)(F)F)cc3C2)C1 (some centres undefined)	230
COC1COCCC1N[C@@H]1C[C@H]2CN(C(=O)NC(C)C)C[C@@]2(C(=O)N2CCc3ncc(C(F)(F)F)cc3C2)C1 (some centres undefined)	81
COC1COCCC1N[C@@H]1C[C@H]2CN(C(=O)OCc3ccccc3)C[C@@]2(C(=O)N2CCc3ncc(C(F)(F)F)cc3C2)C1 (some centres undefined)	190
COC1COCCC1N[C@@H]1C[C@H]2CN(C(=O)OCC(C)(C)C)C[C@@]2(C(=O)N2CCc3ncc(C(F)(F)F)cc3C2)C1 (some centres undefined)	99
COC1COCCC1N[C@@H]1C[C@H]2CN(C(=O)OCC(C)C)C[C@@]2(C(=O)N2CCc3ncc(C(F)(F)F)cc3C2)C1 (some centres undefined)	21
COC1COCCC1N[C@@H]1C[C@H]2CN(C(N)=NC#N)C[C@@]2(C(=O)N2CCc3ncc(C(F)(F)F)cc3C2)C1 (some centres undefined)	29
COC1COCCC1N[C@@H]1C[C@H]2CN(C(=O)OCCNC(C)=O)C[C@@]2(C(=O)N2CCc3ncc(C(F)(F)F)cc3C2)C1 (some centres undefined)	18
